Assay results taken from paper PMC8550792, “Evolution of kinase polypharmacology across HSP90 drug discovery” (Cell Chemical Biology, 2021).
Values joined by “and” are separate entries in the source; they are usually repeats but may differ in a detail not shown here. Equal values may be shown once. Read-outs that look alike come from different tables or passages of the source.

What was measured:
[1] = test system: HSP90AA1; details: average of reported values; ref ChEMBL23 (accessed: 23/08/2018); cited from earlier work
[2] = molecular target: T1, LYN B (Homo sapiens, UniProt P07948); assay: HotSpot in vitro kinase radiometric assay; format: biochemical; details: 10 μM, Fig 6C median ± standard deviation (n = 2)
T1 construct: purchased Reaction Biology (HotSpot contract assay)
Summary of the method: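 Radiometric filter-binding read-out of 32P/33P-labelled phosphoproduct captured on filter paper. Reactions contain kinase, substrate, cofactors and ɣ-labelled ATP plus test compound; no modified substrate or coupling enzyme used.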

[3] = molecular target: T2, ABL2/ARG (Homo sapiens, UniProt P42684); assay: HotSpot in vitro kinase radiometric assay; format: biochemical
T2 construct: purchased Reaction Biology (HotSpot contract assay)

[4] = molecular target: ABL1 (Homo sapiens, UniProt P00519); assay: HotSpot in vitro kinase radiometric assay; format: biochemical; parameters: purchased Reaction Biology (HotSpot contract assay)
[5] = test system: TRAP1; parameters: method as in ChEMBL23 (accessed: 23/08/2018); details: average of reported values; ref ChEMBL23 (accessed: 23/08/2018); cited from earlier work
[6] = test system: HSP90AB1; parameters: method as in ChEMBL23 (accessed: 23/08/2018); details: average of reported values; ref ChEMBL23 (accessed: 23/08/2018); cited from earlier work
[7] = molecular target: DDR1 (Homo sapiens, UniProt Q08345); assay: HotSpot in vitro kinase radiometric assay; format: biochemical; parameters: purchased Reaction Biology (HotSpot contract assay)
[8] = molecular target: T3, 382 unique human kinases (Homo sapiens, UniProt P11802); assay: biochemical; format: biochemical; details: CDK4/cyclin D3, [ATP] 5 µM, compound 10 uM; for remaining activity at 10 µM: read-out: % Enzyme Activity (relative to DMSO controls)
T3 construct: purchased Reaction Biology (HotSpot contract assay)

[9] = molecular target: T4, 382 unique human kinases (Homo sapiens, UniProt P24941); assay: biochemical; format: biochemical; details: 10 uM; for remaining activity at 10 µM: read-out: % Enzyme Activity (relative to DMSO controls)
T4 construct: purchased Reaction Biology (HotSpot contract assay)

[10] = molecular target: T5, 382 unique human kinases (Homo sapiens, UniProt P10721, D816H); assay: biochemical; format: biochemical; details: c-Kit (D816H), [ATP] 5 µM, compound 10 uM; for remaining activity at 10 µM: read-out: % Enzyme Activity (relative to DMSO controls)
T5 construct: purchased Reaction Biology (HotSpot contract assay)

[11] = molecular target: T6, 382 unique human kinases (Homo sapiens, UniProt P50750); assay: biochemical; format: biochemical; details: CDK9/cyclin T1, 10 uM; for remaining activity at 10 µM: read-out: % Enzyme Activity (relative to DMSO controls)
T6 construct: purchased Reaction Biology (HotSpot contract assay)

[12] = molecular target: T7, 382 unique human kinases (Homo sapiens, UniProt P08581, P991S); assay: biochemical; format: biochemical; details: c-MET (P991S), 10 uM; for remaining activity at 10 µM: read-out: % Enzyme Activity (relative to DMSO controls)
T7 construct: purchased Reaction Biology (HotSpot contract assay)

[13] = test system: 382 unique human kinases; assay: biochemical; format: biochemical; details: for In vitro screening: kinases hit / kinases screened: Figure 3; for number of off-target kinases experimentally identified, In vitro binding (KinomeSCAN): cutoff of >85% inhibition at 10 μM, luminespib and ganetespib large kinome panel, others 16-kinase panel
[14] = molecular target: T8, 382 unique human kinases (Homo sapiens, UniProt Q00534); assay: biochemical; format: biochemical; details: CDK6/cyclin D3, 10 uM
T8 construct: purchased Reaction Biology (HotSpot contract assay)

[15] = 10 μM, Fig 6C median ± standard deviation (n = 2)
[16] = ABL2, single replicate curves, read-out: IC50
[17] = radiometric 10-point concentration-response, n = 3, read-out: in vitro biochemical IC50, ABL2
[18] = ABL1, single replicate curves, read-out: IC50
[19] = radiometric 10-point concentration-response, n = 3, read-out: in vitro biochemical IC50, ABL1
[20] = radiometric 10-point concentration-response, n = 3, read-out: in vitro biochemical IC50, DDR1

T2 sequence (P42684 whole entry): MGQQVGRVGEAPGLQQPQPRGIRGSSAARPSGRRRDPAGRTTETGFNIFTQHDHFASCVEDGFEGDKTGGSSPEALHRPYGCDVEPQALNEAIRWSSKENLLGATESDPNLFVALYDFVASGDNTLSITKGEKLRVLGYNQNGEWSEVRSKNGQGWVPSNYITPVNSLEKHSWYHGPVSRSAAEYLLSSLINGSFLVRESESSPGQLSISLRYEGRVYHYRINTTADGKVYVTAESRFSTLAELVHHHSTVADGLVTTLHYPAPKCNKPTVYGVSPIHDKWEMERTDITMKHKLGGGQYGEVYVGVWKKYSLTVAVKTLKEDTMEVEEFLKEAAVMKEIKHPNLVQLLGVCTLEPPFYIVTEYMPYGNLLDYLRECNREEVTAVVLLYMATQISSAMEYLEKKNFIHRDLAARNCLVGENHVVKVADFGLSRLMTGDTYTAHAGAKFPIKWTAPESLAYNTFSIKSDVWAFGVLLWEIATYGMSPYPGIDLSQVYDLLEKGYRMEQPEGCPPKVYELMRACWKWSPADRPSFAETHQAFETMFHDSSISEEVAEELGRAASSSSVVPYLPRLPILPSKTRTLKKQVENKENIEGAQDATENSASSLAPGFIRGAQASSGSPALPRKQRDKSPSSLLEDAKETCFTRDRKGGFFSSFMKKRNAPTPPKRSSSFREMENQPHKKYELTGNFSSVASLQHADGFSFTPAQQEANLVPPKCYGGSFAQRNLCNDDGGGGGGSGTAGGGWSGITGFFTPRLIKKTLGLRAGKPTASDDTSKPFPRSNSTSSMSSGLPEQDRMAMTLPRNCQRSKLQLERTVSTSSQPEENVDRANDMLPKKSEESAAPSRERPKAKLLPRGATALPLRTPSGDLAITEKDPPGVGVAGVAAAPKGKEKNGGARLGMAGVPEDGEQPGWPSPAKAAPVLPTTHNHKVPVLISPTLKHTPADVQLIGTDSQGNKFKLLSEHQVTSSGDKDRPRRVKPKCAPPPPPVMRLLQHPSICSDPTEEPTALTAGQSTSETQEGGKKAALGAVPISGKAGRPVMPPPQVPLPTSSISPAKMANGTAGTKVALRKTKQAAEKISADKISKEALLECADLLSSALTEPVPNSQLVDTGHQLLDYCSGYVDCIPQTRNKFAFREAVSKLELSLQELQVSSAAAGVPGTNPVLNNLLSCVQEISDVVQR
T5 sequence (P10721 26-976 D816H): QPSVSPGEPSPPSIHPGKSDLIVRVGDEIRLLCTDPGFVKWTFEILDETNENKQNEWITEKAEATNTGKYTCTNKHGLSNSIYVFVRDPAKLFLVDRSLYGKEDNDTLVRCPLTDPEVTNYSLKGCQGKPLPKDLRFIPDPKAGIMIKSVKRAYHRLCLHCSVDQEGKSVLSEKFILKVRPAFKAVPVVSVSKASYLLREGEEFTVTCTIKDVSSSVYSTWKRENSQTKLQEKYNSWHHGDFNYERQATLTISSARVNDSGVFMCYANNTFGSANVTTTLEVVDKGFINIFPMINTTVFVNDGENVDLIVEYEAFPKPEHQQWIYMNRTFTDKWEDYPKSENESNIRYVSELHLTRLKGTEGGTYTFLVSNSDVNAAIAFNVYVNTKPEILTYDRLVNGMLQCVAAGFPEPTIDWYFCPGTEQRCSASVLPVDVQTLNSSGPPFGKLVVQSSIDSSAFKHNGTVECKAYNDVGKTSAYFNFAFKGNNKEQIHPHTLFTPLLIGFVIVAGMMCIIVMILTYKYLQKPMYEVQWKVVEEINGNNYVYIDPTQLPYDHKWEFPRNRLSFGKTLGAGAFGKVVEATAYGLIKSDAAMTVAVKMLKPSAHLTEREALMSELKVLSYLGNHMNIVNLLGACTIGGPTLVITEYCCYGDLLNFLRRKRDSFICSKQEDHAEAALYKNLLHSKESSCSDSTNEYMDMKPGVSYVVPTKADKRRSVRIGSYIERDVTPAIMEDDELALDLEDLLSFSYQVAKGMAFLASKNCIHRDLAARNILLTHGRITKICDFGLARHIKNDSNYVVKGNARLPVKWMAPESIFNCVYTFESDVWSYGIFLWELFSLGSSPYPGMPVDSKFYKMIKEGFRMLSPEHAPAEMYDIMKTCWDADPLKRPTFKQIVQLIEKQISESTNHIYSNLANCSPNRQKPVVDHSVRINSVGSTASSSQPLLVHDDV
T3 sequence (P11802 whole entry): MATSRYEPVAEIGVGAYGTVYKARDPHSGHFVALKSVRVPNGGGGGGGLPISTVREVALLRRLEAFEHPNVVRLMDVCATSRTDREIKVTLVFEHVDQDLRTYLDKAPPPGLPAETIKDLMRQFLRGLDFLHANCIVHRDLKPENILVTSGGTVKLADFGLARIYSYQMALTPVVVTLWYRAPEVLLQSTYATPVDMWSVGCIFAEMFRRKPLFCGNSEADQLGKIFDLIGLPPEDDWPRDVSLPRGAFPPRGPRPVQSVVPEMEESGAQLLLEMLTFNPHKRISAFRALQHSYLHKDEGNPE
T6 sequence (P50750 whole entry): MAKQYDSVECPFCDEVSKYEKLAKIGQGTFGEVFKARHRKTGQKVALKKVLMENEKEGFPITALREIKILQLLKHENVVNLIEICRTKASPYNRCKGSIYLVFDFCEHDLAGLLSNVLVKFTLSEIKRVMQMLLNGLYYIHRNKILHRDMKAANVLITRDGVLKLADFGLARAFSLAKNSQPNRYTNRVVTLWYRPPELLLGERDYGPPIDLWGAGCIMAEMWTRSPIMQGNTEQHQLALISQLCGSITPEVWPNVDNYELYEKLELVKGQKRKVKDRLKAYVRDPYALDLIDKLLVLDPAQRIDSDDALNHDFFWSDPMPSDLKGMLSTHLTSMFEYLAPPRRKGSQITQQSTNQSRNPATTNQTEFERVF
Sequence of ABL1 (P00519 whole entry): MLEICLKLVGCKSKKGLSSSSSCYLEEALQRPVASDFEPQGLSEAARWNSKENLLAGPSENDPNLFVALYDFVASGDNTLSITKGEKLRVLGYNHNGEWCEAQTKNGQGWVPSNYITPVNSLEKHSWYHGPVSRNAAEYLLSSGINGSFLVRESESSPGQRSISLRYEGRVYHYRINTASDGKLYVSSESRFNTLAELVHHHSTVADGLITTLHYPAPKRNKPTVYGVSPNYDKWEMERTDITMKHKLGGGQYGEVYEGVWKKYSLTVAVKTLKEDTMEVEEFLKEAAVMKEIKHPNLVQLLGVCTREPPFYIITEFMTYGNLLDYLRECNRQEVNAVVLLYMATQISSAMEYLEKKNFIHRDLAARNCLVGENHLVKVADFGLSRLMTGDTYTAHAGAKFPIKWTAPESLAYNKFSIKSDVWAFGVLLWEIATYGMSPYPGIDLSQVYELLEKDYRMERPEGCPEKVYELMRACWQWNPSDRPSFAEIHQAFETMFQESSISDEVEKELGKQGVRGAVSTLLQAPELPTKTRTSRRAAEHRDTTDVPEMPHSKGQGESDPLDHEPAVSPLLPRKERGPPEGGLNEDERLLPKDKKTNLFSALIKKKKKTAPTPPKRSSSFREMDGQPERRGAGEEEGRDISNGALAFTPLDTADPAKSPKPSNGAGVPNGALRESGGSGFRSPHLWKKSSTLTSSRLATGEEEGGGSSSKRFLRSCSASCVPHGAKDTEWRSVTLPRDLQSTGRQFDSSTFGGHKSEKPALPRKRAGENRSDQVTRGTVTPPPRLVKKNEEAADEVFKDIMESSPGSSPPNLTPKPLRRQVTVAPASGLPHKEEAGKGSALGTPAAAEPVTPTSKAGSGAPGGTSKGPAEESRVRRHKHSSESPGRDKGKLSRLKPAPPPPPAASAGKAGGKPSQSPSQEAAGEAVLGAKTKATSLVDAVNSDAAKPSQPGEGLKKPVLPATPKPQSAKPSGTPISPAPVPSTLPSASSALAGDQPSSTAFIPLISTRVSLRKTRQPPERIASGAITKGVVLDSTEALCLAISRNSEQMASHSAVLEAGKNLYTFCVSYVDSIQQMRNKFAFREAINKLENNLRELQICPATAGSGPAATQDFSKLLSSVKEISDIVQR
Sequence of DDR1 (Q08345 19-913): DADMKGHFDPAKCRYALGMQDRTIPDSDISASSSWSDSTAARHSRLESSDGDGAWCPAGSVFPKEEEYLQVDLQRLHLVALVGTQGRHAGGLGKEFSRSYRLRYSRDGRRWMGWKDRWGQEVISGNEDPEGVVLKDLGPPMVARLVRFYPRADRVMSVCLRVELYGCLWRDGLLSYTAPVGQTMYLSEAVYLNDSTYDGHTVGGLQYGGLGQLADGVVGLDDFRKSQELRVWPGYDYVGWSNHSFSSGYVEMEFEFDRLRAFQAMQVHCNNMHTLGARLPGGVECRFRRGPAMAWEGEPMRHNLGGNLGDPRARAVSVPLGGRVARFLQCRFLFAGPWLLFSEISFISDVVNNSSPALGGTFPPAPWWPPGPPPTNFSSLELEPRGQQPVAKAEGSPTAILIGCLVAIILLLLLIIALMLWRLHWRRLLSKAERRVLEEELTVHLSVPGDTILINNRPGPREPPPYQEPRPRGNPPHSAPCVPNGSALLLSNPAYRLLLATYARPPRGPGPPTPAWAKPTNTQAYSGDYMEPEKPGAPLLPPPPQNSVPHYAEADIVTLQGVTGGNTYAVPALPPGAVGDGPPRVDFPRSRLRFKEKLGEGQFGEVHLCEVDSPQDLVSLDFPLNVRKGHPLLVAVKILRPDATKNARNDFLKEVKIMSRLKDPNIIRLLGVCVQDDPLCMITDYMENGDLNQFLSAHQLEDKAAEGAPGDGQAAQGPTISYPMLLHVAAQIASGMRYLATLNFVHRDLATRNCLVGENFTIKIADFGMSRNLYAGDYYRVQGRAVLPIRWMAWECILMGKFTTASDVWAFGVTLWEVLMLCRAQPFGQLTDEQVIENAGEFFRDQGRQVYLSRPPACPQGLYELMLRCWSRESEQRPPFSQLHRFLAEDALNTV

## CCNC(=O)c1noc(-c2cc(C(C)C)c(O)cc2O)c1-c1ccc(CN2CCOCC2)cc1 [Luminespib]
[1]
  pActivity, HSP90AA1: 8.01
[2]; read-out: % inhibition at 10 uM: LYN B
  inhibition at 10 µM: 74 ± 1%
[3]; [15]
  % inhibition at 10 uM: ABL2: 92 ± 0%
[3]; ABL2, single replicate curves
  HILLSLOPE: -2.11 and -2.06 and -1.92
[3]; [16]
  IC50: 4.57 µM and 4.33 µM and 4.12 µM
[3]; [17]
  IC50: 4.34 µM
[3]; read-out: % inhibition at 10 uM: ABL2, 10 μM, Fig 6C median ± standard deviation (n = 2)
  inhibition at 10 µM: > 85%
[4]; [15]
  % inhibition at 10 uM: ABL1: 93 ± 1%
[4]; ABL1, single replicate curves
  HILLSLOPE: -3.07 and -2.62 and -3.14
[4]; [18]
  IC50: 3.57 µM and 3.39 µM and 3.22 µM
[4]; [19]
  IC50: 3.39 µM
[4]; read-out: % inhibition at 10 uM: ABL1, 10 μM, Fig 6C median ± standard deviation (n = 2)
  inhibition at 10 µM: > 85%
[5]
  pActivity, TRAP1: 7.67
[6]
  pActivity, HSP90AB1: 8.09
[7]; [20]
  IC50: > 10 µM
[7]; read-out: % inhibition at 10 uM: DDR1, 10 μM, Fig 6C median ± standard deviation (n = 2)
  inhibition at 10 µM: 15 ± 1%
[8]
  % Enzyme Activity (relative to DMSO controls): 101.56%
  remaining activity at 10 µM: 102%
[9]; CDK2/Cyclin A1
  % Enzyme Activity (relative to DMSO controls): 96.40%
  remaining activity at 10 µM: 97.4%
[9]; CDK2/cyclin E
  % Enzyme Activity (relative to DMSO controls): 98.18%
  remaining activity at 10 µM: 101%
[10]
  % Enzyme Activity (relative to DMSO controls): 83.99%
  remaining activity at 10 µM: 84.3%
[11]
  % Enzyme Activity (relative to DMSO controls): 103.10%
  remaining activity at 10 µM: 105%
[12]
  % Enzyme Activity (relative to DMSO controls): 98.52%
  remaining activity at 10 µM: 100%
[13]; 10 μM
  number of kinase off-targets inhibited by more than 50% at 10 μM: 14
  number of native kinases inhibited by more than 85% at 10 μM: two
[13]; ALK (T1151-L1152insT), [ATP] 20 µM, compound 10 uM
  % Enzyme Activity (relative to DMSO controls): 108.18% and 107.06%
[13]; ALK-TPM3, [ATP] 15 µM, compound 10 uM
  % Enzyme Activity (relative to DMSO controls): 105.28% and 105.22%
[13]; BRAF (T599_V600insT), 10 uM
  % Enzyme Activity (relative to DMSO controls): 98.93% and 97.05%
[13]; BRAF-FAM131B (Fex2Bex9), 10 uM
  % Enzyme Activity (relative to DMSO controls): 111.02% and 110.19%
[13]; EGFR (d746-750/C797S), 10 uM
  % Enzyme Activity (relative to DMSO controls): 93.95% and 93.48%
[13]; ERBB2 (V777_G778insCG), 10 uM
  % Enzyme Activity (relative to DMSO controls): 103.65% and 102.78%
[13]; FGFR1OP-FGFR1, [ATP] 10 µM, compound 10 uM
  % Enzyme Activity (relative to DMSO controls): 103.05% and 103.02%
[13]; FLT3 (ITD), [ATP] 30 µM, compound 10 uM
  % Enzyme Activity (relative to DMSO controls): 91.11% and 89.12%
[13]
  In vitro screening: kinases hit / kinases screened: 2/382
  number of off-target kinases experimentally identified, In vitro binding (KinomeSCAN): 2
[13]; KSR1 (A635F), 10 uM
  % Enzyme Activity (relative to DMSO controls): 100.08% and 96.91%
[13]; LYN B, [ATP] 20 µM, compound 10 uM
  % Enzyme Activity (relative to DMSO controls): 26.10% and 25.22%
[13]; PKCb2, 10 uM
  % Enzyme Activity (relative to DMSO controls): 102.18% and 101.94%
[13]; ROS1-GOPC, [ATP] 15 µM, compound 10 uM
  % Enzyme Activity (relative to DMSO controls): 101.12% and 99.93%
[13]; TRKA-TFG (TRK-T3), [ATP] 20 µM, compound 10 uM
  % Enzyme Activity (relative to DMSO controls): 85.72% and 85.69%
[13]; TRKA-TPM3, [ATP] 50 µM, compound 10 uM
  % Enzyme Activity (relative to DMSO controls): 90.74% and 88.03%
[13]; TRKA-TPR, [ATP] 50 µM, compound 10 uM
  % Enzyme Activity (relative to DMSO controls): 90.04% and 89.94%
[13]; c-Kit (d557-558), [ATP] 10 µM, compound 10 uM
  % Enzyme Activity (relative to DMSO controls): 63.45% and 62.37%
[14]
  % Enzyme Activity (relative to DMSO controls): 112.00%
[14]; read-out: % Enzyme Activity (relative to DMSO controls)
  remaining activity at 10 µM: 113%

## CC(C)c1cc(-c2n[nH]c(=O)n2-c2ccc3c(ccn3C)c2)c(O)cc1O [Ganetespib]
[2]
  % inhibition at 10 uM: LYN B: not inhibited
[3]; ABL2, single replicate curves
  HILLSLOPE: -0.77 and -0.90 and -0.92
[3]; [16]
  IC50: 0.174 µM and 0.23 µM and 0.24 µM
[3]; [17]
  IC50: 0.215 µM
[3]; read-out: % inhibition of ABL2 at 1 μM, 1 μM, secondary screening
  inhibition at 1 µM: > 85%
[4]; ABL1, single replicate curves
  HILLSLOPE: -0.99 and -0.93 and -0.96
[4]; [18]
  IC50: 0.625 µM and 0.519 µM and 0.539 µM
[4]; [19]
  IC50: 0.561 µM
[4]; read-out: % inhibition of ABL1 at 1 μM, 1 μM, secondary screening
  inhibition at 1 µM: > 80%
[5]
  pActivity, TRAP1: 7.29
[6]
  pActivity, HSP90AB1: 8.3
[7]; DDR1, single replicate curves
  HILLSLOPE: -0.94 and -1.03 and -0.91
[7]; DDR1, single replicate curves, read-out: IC50
  IC50: 0.361 µM and 0.363 µM and 0.289 µM
[7]; [20]
  IC50: 0.338 µM
[7]; read-out: % inhibition of DDR1 at 1 μM, 1 μM, secondary screening
  inhibition at 1 µM: > 85%
[8]
  remaining activity at 10 µM: 53.8%
[9]; CDK2/Cyclin A1
  remaining activity at 10 µM: 108%
[9]; CDK2/cyclin E
  remaining activity at 10 µM: 93.7%
[10]
  remaining activity at 10 µM: 46.4%
[11]
  remaining activity at 10 µM: 100%
[12]
  remaining activity at 10 µM: 109%
[13]
  number of kinases with inhibition of catalytic activity below 1 μM: 4
  In vitro screening: kinases hit / kinases screened: 21/382
  number of off-target kinases experimentally identified, In vitro binding (KinomeSCAN): 21
[13]; 10 μM
  number of native kinases inhibited by more than 85% at 10 μM: 20
